From ChEMBL document CHEMBL3217413, “Chemical space as a source for new drugs” (Medchemcomm, 2010)
Active and inactive are the calls of the source. No cut-off for these calls is given here.

Columns and labels:
[1] = Inhibition of estrogen receptor (unknown origin); set-up: species or system Homo sapiens
[2] = biological target: Adrenergic receptor alpha-1 (Homo sapiens) (UniProt P35348+P25100+P35368); test: Inhibition of alpha1 adrenergic receptor (unknown origin) at 10 uM by radioligand displacement assay; type: protein assay
[3] = biological target: Glutamate [NMDA] receptor; test: (§1) Inhibition of NMDA receptor glycine binding site (unknown origin); set-up: species or system Homo sapiens
[4] = test system: Nucleic Acid; test: Inhibition of TAT/TAR RNA interaction in HIV1; type: nucleic-acid assay, Human immunodeficiency virus 1
[5] = biological target: Glutamate [NMDA] receptor (Homo sapiens) (UniProt Q05586+Q12879+Q13224+O15399+O60391+Q14957+Q8TCU5); test: as §1
[6] = test system: Human immunodeficiency virus; test: Antiviral activity against HIV; type: functional, organism-based; conditions: Human immunodeficiency virus 1

Row | SMILES | IC50 [3] [µM] | also measured
1 | Oc1ccc(-c2cc3ccc(O)cc3s2)cc1 [RALOXIFENE CORE] | – | IC50 [1]: 0.34 µM
2 | OCc1ccccc1C1CCCNC1 (stereo not given) | – | inhibition [2]: > 50%
3 | NC[C@@H]1NC(=O)CNC1=O | 370 | –
4 | CCOc1cccc(CN(c2cccc(F)c2)C2CCNCC2)c1 | – | IC50 [4]: 500 µM
5 | NC[C@H]1CNC(=O)C(=O)N1 | – | inhibition [5]: inactive
6 | C[C@@H](NCCN)C(=O)O | 112 | –
7 | CC(C)n1c(O)nnc1Sc1cccc(C(F)(F)F)c1 | – | IC50 [6]: 80 µM

Now from value to molecule, other results behind:

Row | IC50 [3] [µM] | SMILES | also measured
8 | 61 | NCCCC(=O)NCC(=O)O | –
9 | 60 | CCNCCC(=O)NCCC(=O)O | –
10 | 28 | C[C@H](N)CC(=O)NCC(=O)O | –
